Laboratory results as given in PubChem BioAssay (NCI).
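Five concentrations, 48 hours, 96-well plates. GI50: concentration for 50% inhibition of growth. At the TGI there is no net growth.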

Legend:
Test in all cases: NCI tumour cell line growth inhibition, 48 h
SF-268 CNS = system: SF-268 CNS
HCT-15 colon = system: HCT-15 colon
MOLT-4 leukemia = system: MOLT-4 leukemia
HL-60(TB) leukemia = system: HL-60(TB) leukemia
U251 CNS = system: U251 CNS
NCI/ADR-RES ovarian = system: NCI/ADR-RES ovarian
RPMI-8226 leukemia = system: RPMI-8226 leukemia
MDA-MB-231 breast = system: MDA-MB-231 breast
CCRF-CEM leukemia = system: CCRF-CEM leukemia
A549 NSCLC = system: A549 NSCLC
786-0 renal = system: 786-0 renal
BT-549 breast = system: BT-549 breast
HCC-2998 colon = system: HCC-2998 colon
SF-539 CNS = system: SF-539 CNS
CAKI-1 renal = system: CAKI-1 renal
M14 melanoma = system: M14 melanoma
TK-10 renal = system: TK-10 renal
SW-620 colon = system: SW-620 colon
K-562 leukemia = system: K-562 leukemia
HOP-92 NSCLC = system: HOP-92 NSCLC
MCF7 breast = system: MCF7 breast
OVCAR-3 ovarian = system: OVCAR-3 ovarian
UACC-62 melanoma = system: UACC-62 melanoma
SN12C renal = system: SN12C renal
EKVX NSCLC = system: EKVX NSCLC
SK-MEL-2 melanoma = system: SK-MEL-2 melanoma
IGROV1 ovarian = system: IGROV1 ovarian
SNB-75 CNS = system: SNB-75 CNS
HT29 colon = system: HT29 colon
HCT-116 colon = system: HCT-116 colon
SNB-19 CNS = system: SNB-19 CNS
MDA-MB-435 = system: MDA-MB-435
UO-31 renal = system: UO-31 renal
COLO 205 colon = system: COLO 205 colon
SF-295 CNS = system: SF-295 CNS
MALME-3M melanoma = system: MALME-3M melanoma
ACHN renal = system: ACHN renal
LOX IMVI melanoma = system: LOX IMVI melanoma
HS 578T breast = system: HS 578T breast
OVCAR-4 ovarian = system: OVCAR-4 ovarian
HOP-62 NSCLC = system: HOP-62 NSCLC
SK-MEL-5 melanoma = system: SK-MEL-5 melanoma
NCI-H23 lung = system: NCI-H23 lung
NCI-H460 lung = system: NCI-H460 lung
KM12 colon = system: KM12 colon
RXF 393 renal = system: RXF 393 renal
OVCAR-8 ovarian = system: OVCAR-8 ovarian
SK-OV-3 ovarian = system: SK-OV-3 ovarian
T-47D breast = system: T-47D breast
SR leukemia = system: SR leukemia
NCI-H522 lung = system: NCI-H522 lung
PC-3 prostate = system: PC-3 prostate
OVCAR-5 ovarian = system: OVCAR-5 ovarian
NCI-H226 lung = system: NCI-H226 lung
UACC-257 melanoma = system: UACC-257 melanoma
DU-145 prostate = system: DU-145 prostate
SK-MEL-28 melanoma = system: SK-MEL-28 melanoma

For `CC(C)=CCc1c(O)c(CC=C(C)C)c2c(c1O)C(=O)C1=C[C@@H]3C[C@H]4C(C)(C)O[C@@](C/C=C(\C)C(=O)O)(C3=O)[C@@]14O2`, the GI50 (SF-268 CNS) was 26.6 µM, the TGI (SF-268 CNS) was > 100 µM and the GI50 (HCT-15 colon) was 23.9 µM. For the same compound, the TGI (HCT-15 colon) was > 100 µM, the GI50 (MOLT-4 leukemia) was 25.1 µM and the TGI (MOLT-4 leukemia) was 93.4 µM. For the same compound, the GI50 (HL-60(TB) leukemia) was 21.1 µM, the TGI (HL-60(TB) leukemia) was 70.3 µM and the GI50 (U251 CNS) was 17.4 µM. For the same compound, the TGI (U251 CNS) was 38.5 µM, the GI50 (NCI/ADR-RES ovarian) was 33.3 µM and the TGI (NCI/ADR-RES ovarian) was > 100 µM. For the same compound, the GI50 (RPMI-8226 leukemia) was 12.8 µM, the TGI (RPMI-8226 leukemia) was 50.8 µM and the GI50 (MDA-MB-231 breast) was 42.1 µM. For the same compound, the TGI (MDA-MB-231 breast) was > 100 µM, the GI50 (CCRF-CEM leukemia) was 18.5 µM and the TGI (CCRF-CEM leukemia) was 76.5 µM. For the same compound, the GI50 (A549 NSCLC) was 38.4 µM, the TGI (A549 NSCLC) was > 100 µM and the GI50 (786-0 renal) was 18.8 µM. For the same compound, the TGI (786-0 renal) was 37.3 µM, the GI50 (BT-549 breast) was 16.8 µM and the TGI (BT-549 breast) was 33.8 µM. The GI50 (HCC-2998 colon) was 19.6 µM, the TGI (HCC-2998 colon) was 40.1 µM and the GI50 (SF-539 CNS) was 17.3 µM. The TGI (SF-539 CNS) was 41.2 µM, the GI50 (CAKI-1 renal) was 29.4 µM and the TGI (CAKI-1 renal) was > 100 µM. For the same compound, the GI50 (M14 melanoma) was 19.9 µM, the TGI (M14 melanoma) was 52.3 µM and the GI50 (TK-10 renal) was 25.6 µM. For the same compound, the TGI (TK-10 renal) was 50.9 µM, the GI50 (SW-620 colon) was 19.9 µM and the TGI (SW-620 colon) was 50.4 µM. For the same compound, the GI50 (K-562 leukemia) was 24 µM, the TGI (K-562 leukemia) was > 100 µM and the GI50 (HOP-92 NSCLC) was 19 µM. The TGI (HOP-92 NSCLC) was 45 µM, the GI50 (MCF7 breast) was 19 µM and the TGI (MCF7 breast) was > 100 µM. It also gave a GI50 (OVCAR-3 ovarian) of 18.1 µM, a TGI (OVCAR-3 ovarian) of 34.2 µM and a GI50 (UACC-62 melanoma) of 19.9 µM. The TGI (UACC-62 melanoma) was 50.8 µM, the GI50 (SN12C renal) was 29.4 µM and the TGI (SN12C renal) was > 100 µM. The GI50 (EKVX NSCLC) was 27.5 µM, the TGI (EKVX NSCLC) was > 100 µM and the GI50 (SK-MEL-2 melanoma) was 19.8 µM. The TGI (SK-MEL-2 melanoma) was 43 µM, the GI50 (IGROV1 ovarian) was 26.7 µM and the TGI (IGROV1 ovarian) was 83.2 µM. The GI50 (SNB-75 CNS) was 31.9 µM, the TGI (SNB-75 CNS) was > 100 µM and the GI50 (HT29 colon) was 23.7 µM. For the same compound, the TGI (HT29 colon) was 64.3 µM, the GI50 (HCT-116 colon) was 18 µM and the TGI (HCT-116 colon) was 34.2 µM. It also gave a GI50 (SNB-19 CNS) of 30.2 µM, a TGI (SNB-19 CNS) of 94.4 µM and a GI50 (MDA-MB-435) of 23.9 µM. For the same compound, the TGI (MDA-MB-435) was 62.9 µM, the GI50 (UO-31 renal) was 14.3 µM and the TGI (UO-31 renal) was 31.8 µM. It also gave a GI50 (COLO 205 colon) of 19.3 µM, a TGI (COLO 205 colon) of 45.5 µM and a GI50 (SF-295 CNS) of 33.9 µM. The TGI (SF-295 CNS) was > 100 µM, the GI50 (MALME-3M melanoma) was 18 µM and the TGI (MALME-3M melanoma) was 50.9 µM. For the same compound, the GI50 (ACHN renal) was 29.7 µM, the TGI (ACHN renal) was > 100 µM and the GI50 (LOX IMVI melanoma) was 14.4 µM. The TGI (LOX IMVI melanoma) was 28.6 µM, the GI50 (HS 578T breast) was 42.6 µM and the TGI (HS 578T breast) was > 100 µM. For the same compound, the GI50 (OVCAR-4 ovarian) was 41.7 µM, the TGI (OVCAR-4 ovarian) was > 100 µM and the GI50 (HOP-62 NSCLC) was 23.8 µM. For the same compound, the TGI (HOP-62 NSCLC) was 58.7 µM, the GI50 (SK-MEL-5 melanoma) was 18.8 µM and the TGI (SK-MEL-5 melanoma) was 36.1 µM. It also gave a GI50 (NCI-H23 lung) of 22.5 µM, a TGI (NCI-H23 lung) of 69.2 µM and a GI50 (NCI-H460 lung) of 19.8 µM. The TGI (NCI-H460 lung) was 44 µM, the GI50 (KM12 colon) was 21.2 µM and the TGI (KM12 colon) was 47.1 µM. The GI50 (RXF 393 renal) was 21.6 µM, the TGI (RXF 393 renal) was 42.2 µM and the GI50 (OVCAR-8 ovarian) was 28.4 µM. The TGI (OVCAR-8 ovarian) was > 100 µM, the GI50 (SK-OV-3 ovarian) was 59.6 µM and the TGI (SK-OV-3 ovarian) was > 100 µM. It also gave a GI50 (T-47D breast) of 23.6 µM, a TGI (T-47D breast) of 79.3 µM and a GI50 (SR leukemia) of 16.1 µM. The TGI (SR leukemia) was > 100 µM, the GI50 (NCI-H522 lung) was 15.9 µM and the TGI (NCI-H522 lung) was 36 µM. For the same compound, the GI50 (PC-3 prostate) was 25 µM, the TGI (PC-3 prostate) was 64.8 µM and the GI50 (OVCAR-5 ovarian) was 32.9 µM. The TGI (OVCAR-5 ovarian) was 98.1 µM, the GI50 (NCI-H226 lung) was 25.4 µM and the TGI (NCI-H226 lung) was 58.9 µM. It also gave a GI50 (UACC-257 melanoma) of 21.6 µM, a TGI (UACC-257 melanoma) of 55 µM and a GI50 (DU-145 prostate) of 25.9 µM. It also gave a TGI (DU-145 prostate) of 68 µM, a GI50 (SK-MEL-28 melanoma) of 24.8 µM and a TGI (SK-MEL-28 melanoma) of 69.1 µM.
